Earlier results in US8193242B2 (XenoPort, Inc., priority 2005, dated 2012).

Conditions: following oral administration

Duration of circulating levodopa: prolonged
Plasma concentrations of levodopa: low
Compound: CC(C)(C)C(=O)Oc1ccc(C[C@H](N)C(=O)O)cc1O [NB-355]
